In patent US20250367117A1, “VITAMIN C-ENCAPSULATED LIPOSOME AND PREPARATION METHOD THEREFOR” (Hankook Liposome Co., Ltd., priority 2022, published 2025):

Assay: Bioavailability after oral administration: blood (serum) vitamin C concentration by HPLC
Assay type: in vivo
Settings: male, SD rat, 10 ml(200 mg)/kg
Experimental: The experimental animals used were SD rats (Samtago BIO KOREA Co., Ltd.), which have anatomical and physiological characteristics similar to humans and have the advantage of being useful as a pharmacokinetic model. The SD rats were male, 7-week-old (240-260 g), and were raised at a temperature of 20-24° C. and a relative humidity of 40-70%, and general symptoms were observed once a day for 5 days before the test. Solid feed for experimental animals (Purina Feed®) was provided, and the rats were allowed to consume it freely. […] As a control group, food vitamin C (purity 99.9%) was used, and the weight was measured and dissolved in purified water to prepare it. […] After putting the test substance into a 3 ml syringe, the zonde for rat oral administration was combined, and the test substance was administrated into the rat. For blood collection, about 300 μl of blood was collected from the jugular vein of all subjects in each group using a disposable syringe (1 ml, 26G, BD Biosciences, USA) at the scheduled time after administration. The blood was placed in a clean, light-shielded 1.5 ml amber tube, allowed to coagulate for 30 minutes at room temperature, and then centrifuged to separate the serum. The oral administration time points were 0, 1, 2, 4, 6, 8, 10, 12, and 24 hours (total of 9 time points). For blood sample separation and analysis, the harvested whole blood was coagulated and centrifuged at 3,000 rpm for 10 minutes using a centrifuge (Micro17R, Hanil, KOR) to separate the serum. Each 100 μl×1 tube was placed in a 1.5 ml Amber tube labeled with the test type, animal number, and blood collection time and stored in an ultra-low temperature freezer (approximately −70° C.). When testing, the stored samples were thawed at room temperature and the blood concentration of vitamin C was analyzed using HPLC (Alliance e2695, Waters, USA). […] For sample processing and analysis, 70 μL of the sample was taken and placed in a microtube, 70 μL of metaphosphoric acid (0.1 g/mL in water) was added, and then mixed using a vortexer for 30 seconds. The mixture was centrifuged at 14,000 rpm for 10 minutes, and the supernatant was transferred to a vial and injected into the HPLC for analysis. Since vitamin C is an endogenous substance, it was used after serum dialysis.

Cmax: 12000 ng/mL
Tmax: 7.67 h
AUC(0-t) (read-out: AUC0-24 of vitamin C): 234 µg·h/mL
half-life (read-out: T1/2 of vitamin C (converted)): 27.8 h
Structure (SMILES): O=C1O[C@H]([C@@H](O)CO)C(O)=C1O [vitamin C, ascorbic acid]
